Data: ChEMBL document CHEMBL1201862, “PubChem BioAssay data set” (2004)
Calls of active or inactive are those of the source.

Legend:
[1] = MDA-MB-231 cell growth inhibition, dose response, cytotoxicity control for RAD54 inhibitor project, CellTiter-Glo luminescence, cherry-pick (AID 651692); format: functional, cell-based
[2] = target: T1, DNA repair and recombination protein RAD54-like (Homo sapiens, UniProt Q92698); experiment: inhibitors of human RAD54 branch migration, confirmation, biochemical, fluorescence, cherry-picked samples, dose series (AID 651657); format: functional
T1 sequence (Q92698 whole entry): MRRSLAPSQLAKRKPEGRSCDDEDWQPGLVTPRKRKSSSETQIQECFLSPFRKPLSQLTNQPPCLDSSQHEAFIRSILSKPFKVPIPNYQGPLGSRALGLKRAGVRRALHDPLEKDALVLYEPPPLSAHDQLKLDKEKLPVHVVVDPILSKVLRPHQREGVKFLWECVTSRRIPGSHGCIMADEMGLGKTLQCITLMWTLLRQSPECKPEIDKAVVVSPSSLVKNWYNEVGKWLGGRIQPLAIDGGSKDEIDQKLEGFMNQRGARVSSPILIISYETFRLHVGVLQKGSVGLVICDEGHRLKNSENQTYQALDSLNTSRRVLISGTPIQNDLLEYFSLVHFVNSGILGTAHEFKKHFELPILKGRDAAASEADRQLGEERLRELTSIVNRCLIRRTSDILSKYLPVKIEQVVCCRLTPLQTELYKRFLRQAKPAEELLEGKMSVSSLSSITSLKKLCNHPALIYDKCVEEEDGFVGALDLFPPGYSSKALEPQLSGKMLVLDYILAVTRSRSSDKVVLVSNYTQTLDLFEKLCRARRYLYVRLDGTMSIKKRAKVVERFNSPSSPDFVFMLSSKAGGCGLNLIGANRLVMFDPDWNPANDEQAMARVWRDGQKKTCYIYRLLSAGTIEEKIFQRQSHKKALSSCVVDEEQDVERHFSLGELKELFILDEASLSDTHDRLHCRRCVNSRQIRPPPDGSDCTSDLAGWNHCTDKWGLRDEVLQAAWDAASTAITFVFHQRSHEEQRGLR

[3] = target: Beta-galactosidase (Escherichia coli, UniProt Q8VNN2); experiment: Dose response counterscreen for EBI2 assay utilizing the enzyme, b-galactosidase.; format: functional
Sequence of Beta-galactosidase (Q8VNN2 whole entry): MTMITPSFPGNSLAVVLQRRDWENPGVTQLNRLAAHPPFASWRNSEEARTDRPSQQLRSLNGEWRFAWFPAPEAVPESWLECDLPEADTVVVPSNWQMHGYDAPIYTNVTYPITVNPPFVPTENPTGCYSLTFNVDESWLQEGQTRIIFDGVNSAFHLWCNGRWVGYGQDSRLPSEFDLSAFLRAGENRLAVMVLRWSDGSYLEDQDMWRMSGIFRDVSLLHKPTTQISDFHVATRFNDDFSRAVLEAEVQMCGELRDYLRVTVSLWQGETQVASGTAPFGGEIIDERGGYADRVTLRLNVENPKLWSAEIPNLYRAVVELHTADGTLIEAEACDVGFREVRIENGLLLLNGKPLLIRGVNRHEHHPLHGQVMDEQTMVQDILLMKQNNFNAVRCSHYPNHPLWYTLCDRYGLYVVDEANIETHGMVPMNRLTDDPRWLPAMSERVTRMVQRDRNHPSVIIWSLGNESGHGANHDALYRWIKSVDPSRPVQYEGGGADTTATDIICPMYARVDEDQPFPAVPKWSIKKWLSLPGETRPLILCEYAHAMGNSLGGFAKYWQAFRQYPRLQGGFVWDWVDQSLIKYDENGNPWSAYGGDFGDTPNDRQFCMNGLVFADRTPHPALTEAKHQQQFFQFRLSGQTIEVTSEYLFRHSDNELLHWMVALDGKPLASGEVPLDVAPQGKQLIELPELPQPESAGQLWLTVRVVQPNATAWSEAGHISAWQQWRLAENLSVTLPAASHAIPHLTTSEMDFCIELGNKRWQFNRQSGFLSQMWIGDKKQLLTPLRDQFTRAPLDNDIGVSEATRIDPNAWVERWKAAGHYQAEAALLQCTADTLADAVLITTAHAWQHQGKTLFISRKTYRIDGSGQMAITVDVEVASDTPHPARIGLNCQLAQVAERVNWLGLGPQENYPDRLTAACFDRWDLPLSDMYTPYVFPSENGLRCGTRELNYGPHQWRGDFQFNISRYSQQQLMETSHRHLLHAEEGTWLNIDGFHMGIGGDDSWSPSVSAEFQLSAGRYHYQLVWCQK

[4] = target: Adenosylmethionine-8-amino-7-oxononanoate aminotransferase (Mycobacterium tuberculosis, UniProt P9WQ81); experiment: Mycobacterium tuberculosis BioA enzyme inhibitor Measured in Biochemical System Using Plate Reader - 2163-02_Inhibitor_Dose_CherryPick_Activity.; format: functional, Mycobacterium tuberculosis UT205
Sequence of Adenosylmethionine-8-amino-7-oxononanoate aminotransferase (P9WQ81 whole entry): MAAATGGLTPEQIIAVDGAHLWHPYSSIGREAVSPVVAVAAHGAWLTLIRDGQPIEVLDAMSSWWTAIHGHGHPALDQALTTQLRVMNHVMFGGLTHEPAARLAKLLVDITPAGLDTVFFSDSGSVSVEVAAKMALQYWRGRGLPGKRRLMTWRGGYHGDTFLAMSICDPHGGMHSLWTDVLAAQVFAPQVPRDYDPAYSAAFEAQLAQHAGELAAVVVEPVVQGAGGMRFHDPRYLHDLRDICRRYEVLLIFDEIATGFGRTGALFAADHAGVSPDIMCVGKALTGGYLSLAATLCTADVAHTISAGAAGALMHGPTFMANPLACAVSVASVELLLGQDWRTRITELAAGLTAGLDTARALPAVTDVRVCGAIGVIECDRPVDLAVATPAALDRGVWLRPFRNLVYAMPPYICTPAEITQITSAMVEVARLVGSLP

[5] = cells; format: functional
[6] = Vero E6 cell cytotoxicity, dose response, cytotoxicity control for non-replicating M. tuberculosis project, secondary assay (AID 492998); format: functional, VeroE6; settings: Vero C1008
[7] = THP-1 cell cytotoxicity, dose response, cytotoxicity control for non-replicating M. tuberculosis project (AID 489025); format: functional
[8] = StAR promoter reporter inhibition counter-screen, dose response, counter-screen for LRH-1 inverse agonist project, cell-based, luminescence, luciferase reporter (AID 651969); format: functional
[9] = tested on: INS1; experiment: beta cell apoptosis inhibitors, cytokine rescue, dose response, luminescence, retest (AID 449756); format: functional, cell-based; settings: Rattus norvegicus;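 also: cell death triggered by IL-1 beta plus TNF-alpha plus IFN-gamma mixture; protective hits raise ATP signal compared with cytokine alone wells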
[10] = Shn3 3'UTR reporter inhibitors, dose response, cell-based, Clone20 osteoblasts, firefly luciferase, cherry-picked (AID 624132); format: functional;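 also: firefly luciferase luminescence from reporter carrying the Shn3 3'UTR in osteoblasts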
[11] = target: Steroidogenic factor 1 (Homo sapiens, UniProt Q13285); experiment: Counterscreen for inverse agonists of the liver receptor homolog-1 (LRH-1; NR5A2): Luminescence-based cell-based high throughput dose response assay to identify inverse agonists of the Steroidogenic Factor 1 Nuclear Receptor (SF1; NR5A1).; format: functional
Sequence of Steroidogenic factor 1 (Q13285 whole entry): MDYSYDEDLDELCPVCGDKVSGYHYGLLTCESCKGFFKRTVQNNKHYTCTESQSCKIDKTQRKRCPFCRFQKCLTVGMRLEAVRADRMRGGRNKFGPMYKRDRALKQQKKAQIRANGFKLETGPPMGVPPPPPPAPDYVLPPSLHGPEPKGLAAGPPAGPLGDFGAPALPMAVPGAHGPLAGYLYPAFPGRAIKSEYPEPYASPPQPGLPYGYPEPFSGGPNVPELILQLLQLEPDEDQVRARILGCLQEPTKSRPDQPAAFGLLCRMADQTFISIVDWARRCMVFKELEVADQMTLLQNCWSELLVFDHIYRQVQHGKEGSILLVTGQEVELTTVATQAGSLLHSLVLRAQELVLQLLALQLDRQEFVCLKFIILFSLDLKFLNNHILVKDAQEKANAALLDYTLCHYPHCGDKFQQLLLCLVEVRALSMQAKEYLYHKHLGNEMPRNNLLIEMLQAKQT

[12] = target: Nuclear receptor subfamily 5 group A member 2 (Homo sapiens, UniProt O00482); format: functional, cell-based;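 also: HEK293T cells transfected with LRH-1 and a StAR promoter luciferase reporter; potency for inhibitors that lower LRH-1 driven reporter light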
Sequence of Nuclear receptor subfamily 5 group A member 2 (O00482 whole entry): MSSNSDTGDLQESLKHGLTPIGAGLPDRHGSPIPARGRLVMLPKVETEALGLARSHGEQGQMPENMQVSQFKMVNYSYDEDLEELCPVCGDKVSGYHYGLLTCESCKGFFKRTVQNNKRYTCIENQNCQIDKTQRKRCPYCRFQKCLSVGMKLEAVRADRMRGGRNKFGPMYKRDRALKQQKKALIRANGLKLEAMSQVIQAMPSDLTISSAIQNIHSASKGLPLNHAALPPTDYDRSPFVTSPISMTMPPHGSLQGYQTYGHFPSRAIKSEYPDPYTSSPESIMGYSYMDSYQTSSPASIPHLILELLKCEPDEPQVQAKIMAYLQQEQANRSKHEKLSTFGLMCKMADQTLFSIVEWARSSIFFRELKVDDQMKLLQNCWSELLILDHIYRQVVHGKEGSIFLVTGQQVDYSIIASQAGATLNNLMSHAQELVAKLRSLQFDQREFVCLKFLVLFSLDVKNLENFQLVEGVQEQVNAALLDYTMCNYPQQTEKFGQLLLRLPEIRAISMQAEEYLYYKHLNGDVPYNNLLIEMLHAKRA

[13] = HepG2 cell cytotoxicity, dose response, cytotoxicity control for Shn3 inhibitor project, CellTiter-Glo, cherry-picked (AID 624134); format: functional, cell-based
[14] = control 3'UTR Renilla luciferase suppression, dose response, counter-screen for Shn3 inhibitor project, cell-based, Clone20-Shn3RL, cherry-picked (AID 624133); format: functional

CCOC(=O)c1c(C)n(-c2ccc(OC)cc2)c2ccc(O)c(CN(C)C)c12
AC50 [1]: 34.4 µM (active) | AC50 [2]: 52.6 µM (active)

CCOC(=O)C1=C(Nc2ccc(OC)cc2)S/C(=C\c2cc(OC)c(OC)c(OC)c2)C1=O
IC50 [3]: > 80 µM (inactive)

COC(=O)[C@@H]1[C@@H](CO)[C@@H]2Cn3c(ccc(-c4ccccc4)c3=O)[C@@H]2N1Cc1cccc(F)c1
AC50 [4]: 4.33 µM (active)

O=C(Nc1ccc(Cc2ccncc2)cc1)c1ccc([N+](=O)[O-])o1
IC50 [5]: 1.3 µM (active) | CC50 [6]: 4.99 µM (active) | CC50 [7]: 5.59 µM (active) | IC50 [8]: 35.9 µM (inactive) | AC50 [9]: 7.72 µM (active) | AC50 [10]: 2.71 µM (active) | IC50 [11]: 0.831 µM (active) | IC50 [12]: 35.9 µM (inactive) | AC50 [13]: 25.4 µM (active) | AC50 [14]: 13.9 µM (active)

O=C(OCC(=O)N1CCN(C(=O)COC(=O)c2ccc(O)cc2O)CC1)c1ccc(O)cc1O
IC50 [8]: 35.9 µM (inactive) | IC50 [11]: 3.09 µM (active) | IC50 [12]: 3.12 µM (active)
